{
  "source": "patent US9995679B2",
  "about": "“Targeted probes of cellular physiology” (Carnegie Mellon University, priority 2010, dated 2018)",
  "key": {"[1]": {"tested_on": "selected modules (FAP) that activate malachite green", "experiment": "Fluorogen activation by selected FAP modules (switching ratio)", "format": "biochemical", "settings": "in buffer", "description": "Malachite green can serve as an acceptor, as we already have selected modules that activate it with switching ratios of >15,000 fold in buffer. Additional fluorogens may be designed and synthesized. Unsymmetric polymethine dyes, and analogs of indocyanine green may be used as fluorogens, as can many of the polarity sensing dyes (e.g. merocyanine and styryl dyes) with far-red and near IR emission. Fluorogens are screened for nonspecific activation in cell lysate before incorporation into the biosensor composition. Quenching and activation by selected FAP modules are characterized in buffer and cell lysate to determine the activation ratio. FAP/biosensor pairs with acceptable switching ratios are characterized by FCS and TIRF-single molecule microscopy."}, "[2]": {"tested_on": "malachite green binding FAP clone", "experiment": "Fluorescence correlation spectroscopy (FCS) of dye with MG-binding FAP", "settings": "500-fold molar excess of protein, FIG. 6", "description": "To assess the feasibility of this approach, two key criteria have been met. First, the spectral properties of Rhod-2 are almost identical to the CY3 that has already been used as a successful donor molecule. Second, the rhodamine moiety, which is structurally similar to malachite green, has been shown not to bind or block binding of the MG-binding FAP module. […] These findings support the design of this probe."}, "[3]": {"experiment": "Calcium titration curve of MG-PEG7-Rhod2 sodium salt with dL5, fluorescence by plate reader", "format": "binding", "settings": "with dL5 (tandem dimer of L5-MG E52D L91S); free Ca 0-39 μM calibration buffers; FIG. 15", "experimental": "A calcium titration curve for MG-PEG7-Rhod2 sodium salt (compound 18 of Example 8, was measured.\nCompound 18 and 2 μL of dL5 (A tandem dimer of L5-MG E52D L91S (FIG. 1A) separated by a G4S linker) is dissolved in each 600 μL of 0 calcium solution^1 (solution A, Invitrogen™ Cat. no. C-3008MP Calcium Calibration Buffer Kit #1) and 600 μL 39 calcium solution (solution B, Invitrogen™ Cat. no. C-3008MP Calcium Calibration Buffer Kit #1). Each volume of A and B solutions was added into 96 well black plate as described in Table 1.\nAnd then, each solution was measured fluorescence by plate reader (TECAN safire2)."}},
  "note": "“Also recorded” adds a separate entry of the source.",
  "data": [
    {"molecule": "CN(C)c1ccc(C(=C2C=CC(=[N+](C)C)C=C2)c2ccccc2)cc1", "note": "[Malachite green]", "values": [
      {"measurement": "switching ratio (fluorescence activation by FAP)", "setting": "[1]", "result": "> 15,000 fold"}
    ]},
    {"molecule": "CCN(CC)c1ccc2c(-c3ccccc3C(=O)O)c3ccc(=[N+](CC)CC)cc-3oc2c1.[Cl-]", "note": "[rhodamine B]", "values": [
      {"measurement": "binding to / inhibition of MG binding of the malachite green binding FAP", "setting": "[2]", "result": "does not associate with the malachite green binding clone; also recorded: neither binds to nor inhibits normal binding"}
    ]},
    {"molecule": "MG-PEG7-Rhod2 Sodium Salt [Compound 18]", "values": [
      {"measurement": "mid-point for calcium binding (ratio of rhod2 excitation peak to MG excitation peak at ~640 nm vs free calcium)", "setting": "[3]", "result": 0.5, "unit": "micro molar"}
    ]}
  ]
}
